Blank lines part the entries; values can stand above or below the molecule they belong to.
Key:
Trk A = Trk A (Homo sapiens, UniProt P04629); assay: Trk A IC50 values listed in Table 2 of U.S. Pat. No. 9,815,846; details: 14 divided by 0.069; phenyl ring versus pyridine ring
hTrkA [1] = biological target: T1, hTrkA (Homo sapiens, UniProt P04629); assay: PathHunter cell-based assay, inhibition of SH2 domain protein recruitment, hTrkA-p75 U2OS cells; parameters: host or cells: U2OS (human bone osteosarcoma epithelial cells), PathHunter hTrkA-p75
Excerpt: (§1) In Vitro Inhibition of SH2 Domain Protein Recruitment in Human Bone Osteosarcoma Epithelial Cells by Human Tropomyosin Receptor Kinase (hTrk) Inhibitors
(§2) Activation of hTrkA, TrkB or TrkC is examined using PathHunter® (DiscoverX) enzyme fragment complementation technology. In this approach, one fragment of β-galactosidase (β-gal) ProLink (PK) is fused to the C-terminal of the Trk receptor and co-expressed with a phosphotyrosine SH2 domain protein fused with the remaining fragment of β-gal, Enzyme Acceptor (EA), in human Bone Osteosarcoma Epithelial (hU2OS) cells also expressing the p75 neurotrophic receptor (DiscoverX). Activation of hTrk receptors by agonists results in receptor phosphorylation. The SH2-EA fusion protein binds the phosphorylated hTrk receptor resulting in complementation of PK and EA to form an active β-gal enzyme. β-gal enzymatic activity is quantitatively measured using a chemiluminescent substrate in the PathHunter® detection kit (DiscoverX). […]
(§3) Inhibition of hTrk kinase activity: The activity of hTrkA and hTrkC kinase is quantitated using Pathhunter® technology (DiscoverX) as per vendor instructions.
(§4) Briefly, on the assay day, compounds for dose-response studies are serially diluted in dimethyl sulfoxide (1:3 for 10 concentrations) using an acoustic dispensing instrument Echo Access (Labcyte) and dispensed into cell plates that are subsequently incubated at room temperature (RT) for one hour. […] Pathhunter® detection reagents (DiscoverX) are added and plates are read in an ENVISION® plate reader (Perkin-Elmer) at 700 nm after 1 h incubation at RT in the dark. […]
(§5) Data Analysis: The data are converted into % Inhibition and relative IC50 values are calculated from the top-bottom range of the concentration response curve using a four-parameter logistic curve fitting program (GENEDATA SCREENER® v13.0.5) with the equation Y=Bottom+(Top-Bottom)/(1+10^((Log IC50−X)*HillSlope)). […]
Target sequence in this assay (P04629 33-796): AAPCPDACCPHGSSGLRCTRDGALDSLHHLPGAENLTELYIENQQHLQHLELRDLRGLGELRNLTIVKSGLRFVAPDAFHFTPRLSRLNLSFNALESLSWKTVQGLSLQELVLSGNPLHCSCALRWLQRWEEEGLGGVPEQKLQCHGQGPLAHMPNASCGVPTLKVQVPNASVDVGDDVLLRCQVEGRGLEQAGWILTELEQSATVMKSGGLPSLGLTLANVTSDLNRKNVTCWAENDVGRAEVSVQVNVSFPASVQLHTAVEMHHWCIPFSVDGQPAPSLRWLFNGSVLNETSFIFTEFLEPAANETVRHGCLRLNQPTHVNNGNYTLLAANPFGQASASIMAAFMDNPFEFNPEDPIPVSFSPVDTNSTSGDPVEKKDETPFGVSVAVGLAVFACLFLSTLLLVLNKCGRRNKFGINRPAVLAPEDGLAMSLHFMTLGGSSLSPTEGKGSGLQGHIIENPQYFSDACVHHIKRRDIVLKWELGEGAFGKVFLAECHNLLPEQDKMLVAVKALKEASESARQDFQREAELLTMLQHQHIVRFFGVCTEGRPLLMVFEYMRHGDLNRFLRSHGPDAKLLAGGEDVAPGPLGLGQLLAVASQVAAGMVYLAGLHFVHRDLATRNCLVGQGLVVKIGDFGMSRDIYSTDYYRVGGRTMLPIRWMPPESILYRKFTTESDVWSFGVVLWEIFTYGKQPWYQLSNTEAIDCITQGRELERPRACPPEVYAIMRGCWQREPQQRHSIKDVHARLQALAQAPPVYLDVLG

hTrkB [2] = biological target: T2, hTrkB (Homo sapiens, UniProt Q16620); assay: PathHunter cell-based assay, inhibition of SH2 domain protein recruitment, hTrkB-p75 U2OS cells; parameters: host or cells: U2OS (human bone osteosarcoma epithelial cells), PathHunter hTrkB-p75
Excerpt: as §1, §2, §3, §4, §5
Target sequence in this assay (Q16620 32-822): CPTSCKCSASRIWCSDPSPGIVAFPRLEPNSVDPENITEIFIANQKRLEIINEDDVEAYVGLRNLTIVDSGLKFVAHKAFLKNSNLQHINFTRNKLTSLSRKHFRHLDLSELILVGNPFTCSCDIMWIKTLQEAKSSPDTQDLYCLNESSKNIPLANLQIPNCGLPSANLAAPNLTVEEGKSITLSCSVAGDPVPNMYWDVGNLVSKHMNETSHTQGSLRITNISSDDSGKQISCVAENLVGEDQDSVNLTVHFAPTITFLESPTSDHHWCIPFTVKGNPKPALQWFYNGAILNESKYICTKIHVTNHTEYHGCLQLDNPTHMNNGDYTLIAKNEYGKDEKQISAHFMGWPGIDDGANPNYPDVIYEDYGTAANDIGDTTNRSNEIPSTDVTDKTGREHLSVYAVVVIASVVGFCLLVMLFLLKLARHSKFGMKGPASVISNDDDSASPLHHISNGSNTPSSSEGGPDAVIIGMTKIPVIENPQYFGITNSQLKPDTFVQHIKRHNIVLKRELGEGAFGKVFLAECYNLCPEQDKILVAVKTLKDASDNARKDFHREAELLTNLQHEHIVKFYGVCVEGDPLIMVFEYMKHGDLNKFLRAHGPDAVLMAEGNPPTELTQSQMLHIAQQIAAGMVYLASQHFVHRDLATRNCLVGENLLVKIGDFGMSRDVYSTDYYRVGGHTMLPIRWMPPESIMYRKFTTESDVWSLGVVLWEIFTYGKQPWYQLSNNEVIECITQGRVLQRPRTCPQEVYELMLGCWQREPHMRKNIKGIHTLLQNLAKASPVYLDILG

hTrkC [3] = biological target: T3, hTrkC (Homo sapiens, UniProt Q16288); assay: PathHunter cell-based assay, inhibition of SH2 domain protein recruitment, hTrkC-p75 U2OS cells; parameters: host or cells: U2OS (human bone osteosarcoma epithelial cells), PathHunter hTrkC-p75
Excerpt: as §1, §2, §3, §4, §5
Target sequence in this assay (Q16288 32-839): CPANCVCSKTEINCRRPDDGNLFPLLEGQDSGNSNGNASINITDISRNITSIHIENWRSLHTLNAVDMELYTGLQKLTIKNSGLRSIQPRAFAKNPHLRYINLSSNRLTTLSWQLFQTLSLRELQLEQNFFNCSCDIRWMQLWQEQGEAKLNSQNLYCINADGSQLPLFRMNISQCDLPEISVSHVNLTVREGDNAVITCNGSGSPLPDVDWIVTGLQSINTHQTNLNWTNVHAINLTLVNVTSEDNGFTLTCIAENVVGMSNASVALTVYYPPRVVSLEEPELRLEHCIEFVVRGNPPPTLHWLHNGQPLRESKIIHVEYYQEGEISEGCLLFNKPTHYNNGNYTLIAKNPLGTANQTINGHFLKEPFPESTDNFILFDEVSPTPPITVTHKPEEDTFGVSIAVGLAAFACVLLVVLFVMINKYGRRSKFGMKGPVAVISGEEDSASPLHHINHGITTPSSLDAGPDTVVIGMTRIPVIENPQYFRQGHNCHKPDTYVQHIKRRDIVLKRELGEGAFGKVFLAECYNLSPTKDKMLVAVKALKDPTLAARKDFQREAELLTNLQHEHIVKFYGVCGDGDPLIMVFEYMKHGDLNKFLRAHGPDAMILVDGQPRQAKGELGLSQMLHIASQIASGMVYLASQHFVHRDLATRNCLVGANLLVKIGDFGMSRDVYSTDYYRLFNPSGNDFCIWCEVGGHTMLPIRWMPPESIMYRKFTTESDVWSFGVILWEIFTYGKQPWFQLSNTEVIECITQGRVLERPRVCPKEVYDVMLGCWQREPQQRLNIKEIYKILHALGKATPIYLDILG

hTrkA [4] = biological target: T1, hTrkA; assay: hTrk kinase TR-FRET assay (headed Binding Assays), hTrkA kinase domain; type: biochemical; parameters: hTrkA, aa: 441-796; details: hTrkA kinase domain aa 441-796, N = 4, read-out: Relative IC50 hTrkA, Binding Assays
Excerpt: (§6) Human Tropomyosin Receptor Kinase (hTrkA, hTrkB, hTrkC) Assays to Examine hTrk Kinase Inhibitors
(§7) The reaction of non-phosphorylated hTrk kinase domains (hTrkA, aa: 441-796, hTrkB, aa: 526-838 or hTrkC, aa: 510-825) with a fluorescein-labeled poly-GT substrate (poly-GT, Invitrogen) generates a fluorescein-labeled phosphorylated product. Binding of the terbium-labeled antibody (Invitrogen) to the phosphorylated tyrosine product brings the terbium and fluorescein into proximity, resulting in an increase in time-resolved fluorescence resonance energy transfer (TR-FRET). In the presence of an inhibitor, formation of phosphorylated product is reduced, and the TR-FRET value is decreased.
(§8) Inhibition of hTrk kinase activity: The activity of human tropomyosin receptor hTrk kinase is quantitated using TR-FRET technology (Invitrogen) as per vendor instructions. Briefly, compounds for dose-response studies are serially diluted in dimethyl sulfoxide (1:2 for 20 concentrations) using an acoustic dispensing instrument Echo Access (Labcyte) and dispensed into ProxiPlate-384 plus plates (PerkinElmer). […] EDTA and terbium-labeled antibody are added and plates are incubated at RT for one hour after which the TR-FRET signal is detected using an ENVISION® plate reader (Perkin-Elmer). The ratio of fluorescence at 520 to 495 nm is calculated. […]
Target sequence in this assay (P04629 441-796): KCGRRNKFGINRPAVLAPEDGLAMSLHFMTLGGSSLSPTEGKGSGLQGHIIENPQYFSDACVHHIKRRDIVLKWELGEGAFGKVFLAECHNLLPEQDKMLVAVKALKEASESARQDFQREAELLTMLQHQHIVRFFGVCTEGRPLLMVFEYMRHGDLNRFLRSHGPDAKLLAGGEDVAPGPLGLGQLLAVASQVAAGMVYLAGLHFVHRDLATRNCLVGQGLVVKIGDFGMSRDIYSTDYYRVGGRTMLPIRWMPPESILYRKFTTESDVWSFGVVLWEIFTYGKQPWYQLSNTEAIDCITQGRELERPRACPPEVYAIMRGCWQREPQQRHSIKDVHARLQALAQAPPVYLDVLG

hTrkB [5] = biological target: T2, hTrkB; assay: hTrk kinase TR-FRET assay (headed Binding Assays), hTrkB kinase domain; type: biochemical; parameters: hTrkB, aa: 526-838; details: hTrkB kinase domain aa 526-838, N = 1, read-out: Relative IC50 hTrkB, Binding Assays
Excerpt: as §6, §7, §8
Target sequence in this assay (Q16620 510-822): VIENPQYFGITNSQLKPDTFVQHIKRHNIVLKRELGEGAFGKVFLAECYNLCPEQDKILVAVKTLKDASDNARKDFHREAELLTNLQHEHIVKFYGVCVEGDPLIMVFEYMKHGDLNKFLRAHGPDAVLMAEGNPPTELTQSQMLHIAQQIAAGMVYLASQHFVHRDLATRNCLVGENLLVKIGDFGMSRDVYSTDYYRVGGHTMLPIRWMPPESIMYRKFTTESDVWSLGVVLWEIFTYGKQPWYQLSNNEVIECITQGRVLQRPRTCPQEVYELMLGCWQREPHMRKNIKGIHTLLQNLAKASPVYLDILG

hTrkC [6] = biological target: T3, hTrkC; assay: hTrk kinase TR-FRET assay (headed Binding Assays), hTrkC kinase domain; type: biochemical; parameters: hTrkC, aa: 510-825; details: hTrkC kinase domain aa 510-825, N = 1, read-out: Relative IC50 hTrkC, Binding Assays
Excerpt: as §6, §7, §8
Target sequence in this assay (Q16288 510-825 isoform Q16288-3): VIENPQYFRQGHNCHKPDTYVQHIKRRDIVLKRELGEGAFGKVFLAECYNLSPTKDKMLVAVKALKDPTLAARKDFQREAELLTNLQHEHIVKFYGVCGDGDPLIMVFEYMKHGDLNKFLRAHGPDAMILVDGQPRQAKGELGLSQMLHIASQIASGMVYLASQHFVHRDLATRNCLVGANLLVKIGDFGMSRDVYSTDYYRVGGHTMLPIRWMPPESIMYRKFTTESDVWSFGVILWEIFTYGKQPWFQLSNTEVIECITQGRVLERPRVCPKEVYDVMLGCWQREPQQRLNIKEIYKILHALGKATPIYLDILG

[7] = Table 2 comparative data, Example 1 values are the PathHunter values of Table 1, read-out: hTrkA IC50
[8] = Table 2 comparative data, Example 1 values are the PathHunter values of Table 1, read-out: hTrkB IC50
[9] = Table 2 comparative data, Example 1 values are the PathHunter values of Table 1, read-out: hTrkC IC50

Chain of Trk A (P04629 33-796, species assumed): as the sequence (P04629 33-796) above

effect on the potency at TrkA, Example 141 IC50 divided by Example 152 IC50 (Trk A): 202.9 fold
SMILES: Cn1ccc(-c2cc(C(=O)Nc3cc4c(nc3-c3ccccc3)CCNC4=O)c(F)cc2C(F)(F)F)n1 [Example 152]

IC50 (hTrkA [1]; [7]): 11.1 nM
IC50 (hTrkB [2]; [8]): > 47900 nM
IC50 (hTrkC [3]; [9]): 37800 nM
SMILES: Cn1ccc(-c2cc(C(=O)Nc3cc4c(nc3-c3ccccn3)CCNC4=O)c(F)cc2C(F)(F)F)n1 [Example 141 of US Patent No. 9815846]

IC50 (hTrkA [4]): 1.09 nM
IC50 (hTrkB [5]): > 4290 nM
IC50 (hTrkC [6]): 8360 nM
IC50 (hTrkA [1]; hU2OS hTrkA-p75 cells, hNGF 27 ng/ml, N = 32, read-out: Relative IC50 hTrkA, PathHunter cell-based assay): 1.24 nM
IC50 (hTrkB [2]; hU2OS hTrkB-p75 cells, hBDNF 20 ng/ml, N = 25, read-out: Relative IC50 hTrkB, PathHunter cell-based assay): 6700 nM
IC50 (hTrkC [3]; hU2OS hTrkC-p75 cells, hNT-3 29 ng/ml, N = 24, read-out: Relative IC50 hTrkC, PathHunter cell-based assay): 9010 nM
SMILES: Cn1ccc(-c2cc(C(=O)Nc3cncc(C(N)=O)c3-c3ccccn3)c(F)cc2C(F)(F)F)n1 [Example 1, 5-[[2-fluoro-5-(1-methylpyrazol-3-yl)-4-(trifluoromethyl)benzoyl]amino]-4-(2-pyridyl)pyridine-3-carboxamide]

IC50 (hTrkA [1]; [7]): 1.55 nM
IC50 (hTrkB [2]; [8]): 713 nM
IC50 (hTrkC [3]; [9]): 452 nM
SMILES: Cn1ccc(-c2cc(C(=O)Nc3cc(C(N)=O)cnc3-c3ccccc3)ccc2C(F)(F)F)n1 [Example 89 of US Patent No. 9815846]
